Several values for one entry are separate records, joined by “and”; a condition that tells them apart may be missing. Equal entries are not always repeated. Where two headings read alike, the source gives them in different places.

Experiment [1] has as its system R. sphaeroides. Kind of experiment: Hydrogen production by R. sphaeroides under photosynthetic condition in the presence of alcohol (GC of gas phase). In kind it is cell-based, Rhodobacter sphaeroides. The settings on record: for efficiency of hydrogen production: 10 Watts/m^2, 30° C., anaerobic. The method, then: For the hydrogen production, R. sphaeroides 2.4.1(ATCC BAA-808, Cohen-Bazire et al. 1956. J. Cell. Comp. Physiol. 49: 25-68) or R. sphaeroides KCTC 12085 were used. To grow the cells, basically Sistrom minimal medium [20 mM KH2PO4, 3.8 mM (NH4)2SO4, 34 mM succinate, 0.59 mM L-glutamate, 0.30 mM L-aspartate, 8.5 mM NaCl, 1.05 mM nitrilotriacetic acid, 1.2 mM MgCl26H2O, 0.23 mM CaCl27H2O, 25 µM FeSO47H2O, 0.16 M (NH4)6Mo7O244H2O, 4.7 M EDTA, 38 M ZnSO47H2O, 9.1 M MnSO4H2O, 1.6 M CuSO45H2O, 0.85 M Co(NO3)26H2O (II), 1.8 M H3BO3, 8.1 M Nicotinic acid, 1.5 M Thiamine HCl, 41 nM biotin (Sistrom, W. R, 1962. J. Gen. Microbiol. 28: 607-616)] were used with the following modifications. To optimize the activity of nitrogenase, Ammonium molybdate was replaced with the same amount of Sodium molybdate, or 7 mM of L-glutamate was used instead of ammonium sulfate, or succinate was replaced with 30 mM malate. To investigate the effect of ammonium, 2 mM Ammonium chloride was added.
R. sphaeroides was inoculated at the concentration of 10^8 CFU/ml in 10 ml of Sistrom minimal medium and incubated for 120 hrs. to test the hydrogen production at the following condition: 10 Watts/m^2, 30° C., anaerobic. To measure the hydrogen produced, the cells were incubated in a serum vial which was air tight. Before use the air in the vial was replaced with argon gas to remove oxygen. During the reaction, an aliquot of gas in the gas phase was sampled from the vial using the gas-tight syringe, which was further analyzed by a Gas Chromatography (GC, Shimadzu, Japan).
(§1) Each strain was inoculated to the medium as described above at 10^8 CFU/ml and incubated for 120 hours under the following condition: 10 Watts/m^2 of light, 30° C., and anaerobic condition and the amount of hydrogen produced was tested. The ethanol was added at 0.2 vol % and the cell growth, and hydrogen production and analysis were performed as described in Example 1.
To determine the optimal concentration and time of the alcohol added, the accumulated amount of hydrogen produced was measured in R. sphaeroides in the presence of varying amounts of ethanol from 0.01 vol % to 2 vol % (volume/volume %) by incubating them under the same condition as described in Example 1.
In addition to ethanol, other alcohols, that is, methanol (CH3OH), propanol (CH3CH2CH2OH), isopropanol [(CH3)2CHOH], butanol [CH3(CH2)2CH2OH], isoamyl alcohol, [(CH3)2CHCH2CH2OH] were tested. Under the same condition as used in Example 1, each alcohol was added to the cells at the concentration of 0.1%, 0.2%, 0.5%, or 1.0%.

Experiment [2] deals with Rhodobacter capsulatus SB1003. The settings on record: R. capsulatus; ethanol 0.2 vol %; modified Sistrom medium depleted with ammonium ion; 120 hours. The method, then: Rhodobacter capsulatus SB1003 and Rhodospirillum rubrum UR1 selected for the experiment due to their well characterization. For the growth of R. capsulatus, a modified Sistrom medium depleted with ammonium ion was used; and for the growth of R. rubrum, MG minimal medium was used as described in Lehman and Roberts. 1991. J. Bacteriol. 173: 5705-5711.
as §1

The next experiment has as its system nitrogenase. The method, then:
The activity of nitrogenase was measured by the rate of ethylene (C2H4) produced using the acetylene (C2H2) as a substrate. The nitrogenase has an ability to produce hydrogen and ethylene by reducing proton (H+) and acetylene in addition to using N2 as substrate (Kern et al. 1992. Appl. Microbiol. Biotechnol. 37: 496-500). The activity of the nitrogenase was measured by incubating R. sphaeroides under the photosynthetic condition of 10 Watts/m^2 of light. 10 ml of the bacteria (10^8 CFU/ml) was placed in a serum vial (65 ml) and incubated under the light until the KU (Klett Unit) reached 150 to 200. To prevent the de novo protein synthesis during the incubation period, chloramphenicol was used at 50 μg/ml and the air in the vial was replaced with argon before use. Acetylene was injected into the vial to occupy 10% of the entire air phase using a gas-tight syringe. The cells were first incubated for 10 min without light and the reaction started under the 10 Watts/m^2 light. The amount of ethylene produced was measured by withdrawing an aliquot of the gas in the gas phase using a gas-tight syringe and by subject them to GC analysis.

In experiment [3] the test system is R. sphaeroides. The method, then:
The wild type R. sphaeroides cells were grown under 10 Watts/m^2 of light as described in Example 1 and tested for the production of hydrogen.
The hydrogen produced was analyzed as described in Example 1.

Setting [4] is: concentration not stated (tested at 0.1%, 0.2%, 0.5%, or 1.0%).

For `CO` [Methanol, methanol], the hydrogen production entry in the experiment with R. sphaeroides [1] (alcohol at 0.1%, 0.2%, and 0.5%) is listed as “increased”. Besides, the cell growth result in the experiment with R. sphaeroides [1] (alcohol at 1.0%) is recorded as “inhibit the cell growth”. Further, the “concentration with the highest effect on hydrogen production” value (“concentration with the highest effect” for short) with R. sphaeroides [1] (tested at 0.1%, 0.2%, 0.5%, or 1.0%) came out at 0.2%.

On to `CCO` [ethanol], for which the “fold increase (hydrogen produced in the presence of alcohol/in the absence of alcohol)” value in experiment [2] is 1.5 fold and 1.53 fold; in the experiment on R. sphaeroides [1] (R. sphaeroides, ethanol 0.2 vol %, 120 hours) it was 2.21 fold. In the experiment with nitrogenase (0.2 vol % ethanol vs control without ethanol), the “activity of nitrogenase, times higher than the control” value is 4 times. The same molecule returned an activity of nitrogenase in the experiment on nitrogenase (0.2 vol % of EtOH, 10 Watts/m^2 light) of 18.2 nmole KU^−1 h^−1. Further, the growth of cells entry with R. sphaeroides [1] (2% ethanol) is “inhibited the growth”. The hydrogen produced entry with R. sphaeroides [1] (2% ethanol) is recorded as “very much decreased”. In addition, the growth of bacteria entry in the experiment on R. sphaeroides [1] (ethanol 0.1 vol % and 0.5 vol %, Sistrom medium containing ammonium ion) was “not affected”. The “hydrogen production, times higher than the control” value in the experiment with R. sphaeroides [1] (ethanol 0.1 vol % or 0.5 vol % vs control without ethanol) was 10 times. Further, the “efficiency of hydrogen production” value in the experiment with R. sphaeroides [1] (ethanol 0.1 vol %, Sistrom medium containing ammonium ion) was 5.04 mole H2/mole succinate; with R. sphaeroides [1] (ethanol 0.5 vol %, Sistrom medium containing ammonium ion) it was 5.72 mole H2/mole succinate. Further, the “effect on hydrogen production by time of addition” value in the experiment on R. sphaeroides [1] (ethanol 0.5 vol % added with inoculation (10 KU) or at 100 KU compared to addition at 300 KU, FIG. 5) is “higher increasing effect on the hydrogen production”. Also, the “accumulated hydrogen production, wild type strain” value in the experiment with R. sphaeroides [1] (ethanol 0.5 vol %, Sistrom medium containing ammonium ion, FIG. 3) was “increased hydrogen production”. In addition, the hydrogen production entry with R. sphaeroides [1] (ethanol less than 0.05%) is reported as “not shown to increase”. Further, in the experiment on R. sphaeroides [3] (0.2% ethanol, modified medium, FIG. 4), the “hydrogen gas producing ability remained in 2 mM ammonium ion compared to 0 mM ammonium ion” value is “not less than 80%”. In addition, the “nitrogenase activity remained in the presence of ammonium ion” value in the experiment on R. sphaeroides [3] (after the addition of ethanol) is recorded as “more than 80%”.

For `CC(C)CCO` [isoamyl alcohol], the hydrogen production result in the experiment on R. sphaeroides [1] (setting [4]) is on record as “decrease the hydrogen production”.

With `CC(C)O` [isopropanol], in the experiment with R. sphaeroides [1] (setting [4]), the “increase of hydrogen production” value is reported as “about 35%”.

In the case of `CCCO` [propanol], in the experiment on R. sphaeroides [1], the “concentration with the highest effect” value was found to be 0.5% and the hydrogen production entry is “increased”.

With butanol, in the experiment on R. sphaeroides [1], the “concentration with the highest effect” value turned out to be 0.2% and the hydrogen production result is listed as “increased”.

Values taken from US20130089907A1, “HYDROGEN PRODUCTION METHOD USING ALCOHOL AND PHOTOSYNTHETIC BACTERIA” (priority 2010, published 2013).
